In ChEMBL document CHEMBL1123838, “Analgesic dipeptide derivatives. 3. Synthesis and structure-activity relationships of o-nitrophenyl-modified analogues of the analgesic compound H-Lys-Trp(NPS)-OMe” (1987):
Peptide text beside a SMILES is read from it.

Tests used:
Format in all cases: functional
[1] = tested on: Mus musculus; test: Tested for analgesic activity, using Tail-Flick test in Mice at the dose of 1 ug/mouse administered icv after 30 min.
[2] = tested on: Mus musculus; test: Tested for analgesic activity, using Tail-Flick test in Mice at the dose of 1 ug/mouse administered icv after 5 min.
[3] = tested on: Mus musculus; test: Tested for analgesic activity, using Tail-Flick test in Mice at the dose of 1 ug/mouse administered icv after 60 min.
[4] = tested on: Mus musculus; test: Tested for analgesic activity, using Tail-Flick test in Mice at the dose of 2.5 ug/mouse administered icv after 30 min.
[5] = tested on: Mus musculus; test: Tested for analgesic activity, using Tail-Flick test in Mice at the dose of 2.5 ug/mouse administered icv after 5 min.
[6] = tested on: Mus musculus; test: Tested for analgesic activity, using Tail-Flick test in Mice at the dose of 0.5 ug/mouse administered icv after 30 min.
[7] = tested on: Mus musculus; test: Tested for analgesic activity, using Tail-Flick test in Mice at the dose of 0.5 ug/mouse administered icv after 5 min.
[8] = tested on: Mus musculus; test: Tested for analgesic activity, using Tail-Flick test in Mice at the dose of 0.5 ug/mouse administered icv after 60 min.
[9] = tested on: Mus musculus; test: Tested for analgesic activity, using Tail-Flick test in Mice at the dose of 2.5 ug/mouse administered icv after 60 min.
[10] = tested on: Mus musculus; test: Tested for analgesic activity, using Tail-Flick test in Mice at the dose of 0.1 ug/mouse administered icv after 30 min.
[11] = tested on: Mus musculus; test: Tested for analgesic activity, using Tail-Flick test in Mice at the dose of 0.1 ug/mouse administered icv after 5 min.
[12] = tested on: Mus musculus; test: Tested for analgesic activity, using Tail-Flick test in Mice at the dose of 0.1 ug/mouse administered icv after 60 min.
[13] = tested on: Mus musculus; test: Tested for analgesic activity, using Tail-Flick test in Mice at the dose of […] administered icv after 30 min
[14] = tested on: Mus musculus; test: Tested for analgesic activity, using Tail-Flick test in Mice at the dose of 0.5 ug/mouse administered icv after 5 min

| Structure (SMILES) | Change [1] [%] | Change [2] [%] | Change [3] [%] | Change [4] [%] | Change [5] [%] | Change [6] [%] | Change [7] [%] | Change [8] [%] | Change [9] [%] | Change [10] [%] | Change [11] [%] | Change [12] [%] | Change [13] [%] | Change [14] [%] |
| --- | --- | --- | --- | --- | --- | --- | --- | --- | --- | --- | --- | --- | --- | --- |
| COC(=O)C(Cc1cn(Sc2ccccc2NC(C)=O)c2ccccc12)NC(=O)C(N)CCCCN (configuration not stated) | 20 | 25 | 15 | 26 | 27 | -2 | 0 | 5 | 10 |  |  |  |  |  |
| CSCC[C@H](N)C(=O)N[C@@H](C)C(=O)NCC(=O)NCC(=O)N[C@@H](Cc1ccc(O)cc1)C(N)=O (H-MAGGY-NH2) | 118 | 210 | 45 |  |  |  |  | 35 |  | 26 | 40 | -7 | 76 | 122 |
| COC(=O)CCSn1cc(CC(NC(=O)C(N)CCCCN)C(=O)OC)c2ccccc21 (configuration not stated) | 7 | 15 | 9 | 15 | 16 | 10 | 11 | 9 | 0 |  |  |  |  |  |
